Tested on: HCV genotype-1a variant with glutamine 30 changed to glutamate in the NS5A protein
Assay type: cell-based
Details: test compound titrated with BMS-790052 fixed at 200 nM; genotype 1a Q30E replicon
Procedure, shortened: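 Synergy was assessed by combining several fixed amounts of an NS5A-targeting compound with a titration of the second compound of interest.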

Compound | Fold-Synergistic 1a (Q30E)
Cc1ccccc1C(=O)N[C@H](c1ncc(-c2ccc(-c3ccc(-c4cnc([C@@H](NC(=O)c5ccccc5C)C(C)C)[nH]4)cc3)cc2)[nH]1)C(C)C [Compound S-70] | >100 fold
Cc1ccc(C)c(C(=O)N[C@H](c2ncc(-c3ccc(-c4ccc(-c5cnc([C@@H](NC(=O)c6cc(C)ccc6C)C(C)C)[nH]5)cc4)cc3)[nH]2)C(C)C)c1 [Compound S-71] | >100 fold
CC(C)[C@H](NC(=O)c1cccc(C#N)c1)c1ncc(-c2ccc(-c3ccc(-c4cnc([C@@H](NC(=O)c5cccc(C#N)c5)C(C)C)[nH]4)cc3)cc2)[nH]1 [Compound S-72] | >100 fold
CC(C)[C@H](NC(=O)c1cccc(F)c1)c1ncc(-c2ccc(-c3ccc(-c4cnc([C@@H](NC(=O)c5cccc(F)c5)C(C)C)[nH]4)cc3)cc2)[nH]1 [Compound S-73] | >100 fold
CC(C)[C@H](NC(=O)c1cccc(Cl)c1)c1ncc(-c2ccc(-c3ccc(-c4cnc([C@@H](NC(=O)c5cccc(Cl)c5)C(C)C)[nH]4)cc3)cc2)[nH]1 [Compound S-74] | >100 fold
CC(C)[C@H](NC(=O)c1ccc(Cl)c(Cl)c1)c1ncc(-c2ccc(-c3ccc(-c4cnc([C@@H](NC(=O)c5ccc(Cl)c(Cl)c5)C(C)C)[nH]4)cc3)cc2)[nH]1 [Compound S-75] | >100 fold
CC(C)[C@H](NC(=O)c1cc(Cl)cc(Cl)c1)c1ncc(-c2ccc(-c3ccc(-c4cnc([C@@H](NC(=O)c5cc(Cl)cc(Cl)c5)C(C)C)[nH]4)cc3)cc2)[nH]1 [Compound S-76] | >100 fold
COc1cccc(C(=O)N[C@H](c2ncc(-c3ccc(-c4ccc(-c5cnc([C@@H](NC(=O)c6cccc(OC)c6)C(C)C)[nH]5)cc4)cc3)[nH]2)C(C)C)c1 [Compound S-77] | >100 fold
COc1ccc(C(=O)N[C@H](c2ncc(-c3ccc(-c4ccc(-c5cnc([C@@H](NC(=O)c6ccc(OC)c(OC)c6)C(C)C)[nH]5)cc4)cc3)[nH]2)C(C)C)cc1OC [Compound S-78] | >100 fold
CC(C)[C@H](NC(=O)c1cccc(C(F)(F)F)c1)c1ncc(-c2ccc(-c3ccc(-c4cnc([C@@H](NC(=O)c5cccc(C(F)(F)F)c5)C(C)C)[nH]4)cc3)cc2)[nH]1 [Compound S-79] | >100 fold
Cc1cccc(C(=O)N[C@H](c2ncc(-c3ccc(-c4ccc(-c5cnc([C@@H](NC(=O)c6cccc(C)c6)C(C)C)[nH]5)cc4)cc3)[nH]2)C(C)C)c1 [Compound S-80] | >100 fold
CC(C)[C@H](NC(=O)c1ccc(C#N)cc1)c1ncc(-c2ccc(-c3ccc(-c4cnc([C@@H](NC(=O)c5ccc(C#N)cc5)C(C)C)[nH]4)cc3)cc2)[nH]1 [Compound S-81] | >100 fold
CC(C)[C@H](NC(=O)c1ccc(F)cc1)c1ncc(-c2ccc(-c3ccc(-c4cnc([C@@H](NC(=O)c5ccc(F)cc5)C(C)C)[nH]4)cc3)cc2)[nH]1 [Compound S-82] | >100 fold
CC(C)[C@H](NC(=O)c1ccc(Cl)cc1)c1ncc(-c2ccc(-c3ccc(-c4cnc([C@@H](NC(=O)c5ccc(Cl)cc5)C(C)C)[nH]4)cc3)cc2)[nH]1 [Compound S-83] | >100 fold
CC(C)[C@H](NC(=O)c1ccc(C(F)(F)F)cc1)c1ncc(-c2ccc(-c3ccc(-c4cnc([C@@H](NC(=O)c5ccc(C(F)(F)F)cc5)C(C)C)[nH]4)cc3)cc2)[nH]1 [Compound S-84] | >100 fold
Cc1onc(-c2ccccc2)c1C(=O)N[C@H](c1ncc(-c2ccc(-c3ccc(-c4cnc([C@@H](NC(=O)c5c(-c6ccccc6)noc5C)C(C)C)[nH]4)cc3)cc2)[nH]1)C(C)C [Compound S-85] | >100 fold
CC(C)[C@H](NC(=O)c1cccc2ccccc12)c1ncc(-c2ccc(-c3ccc(-c4cnc([C@@H](NC(=O)c5cccc6ccccc56)C(C)C)[nH]4)cc3)cc2)[nH]1 [Compound S-86] | >100 fold
CC(C)[C@H](NC(=O)c1cc2ccccc2o1)c1ncc(-c2ccc(-c3ccc(-c4cnc([C@@H](NC(=O)c5cc6ccccc6o5)C(C)C)[nH]4)cc3)cc2)[nH]1 [Compound S-87] | >100 fold
CC(C)[C@H](NC(=O)c1ccc(F)cc1Cl)c1ncc(-c2ccc(-c3ccc(-c4cnc([C@@H](NC(=O)c5ccc(F)cc5Cl)C(C)C)[nH]4)cc3)cc2)[nH]1 [Compound S-88] | >100 fold
CC(C)[C@H](NC(=O)c1ccc(F)cc1F)c1ncc(-c2ccc(-c3ccc(-c4cnc([C@@H](NC(=O)c5ccc(F)cc5F)C(C)C)[nH]4)cc3)cc2)[nH]1 [Compound S-89] | >100 fold
Cc1ccoc1C(=O)N[C@H](c1ncc(-c2ccc(-c3ccc(-c4cnc([C@@H](NC(=O)c5occc5C)C(C)C)[nH]4)cc3)cc2)[nH]1)C(C)C [Compound S-90] | >100 fold
CC(C)[C@H](NC(=O)c1ccccc1N(C)C)c1ncc(-c2ccc(-c3ccc(-c4cnc([C@@H](NC(=O)c5ccccc5N(C)C)C(C)C)[nH]4)cc3)cc2)[nH]1 [Compound S-91] | >100 fold
CC(C)[C@H](NC(=O)c1c(F)cc(F)cc1F)c1ncc(-c2ccc(-c3ccc(-c4cnc([C@@H](NC(=O)c5c(F)cc(F)cc5F)C(C)C)[nH]4)cc3)cc2)[nH]1 [Compound S-92] | >100 fold
CC(C)[C@H](NC(=O)c1ccc(Cl)cc1F)c1ncc(-c2ccc(-c3ccc(-c4cnc([C@@H](NC(=O)c5ccc(Cl)cc5F)C(C)C)[nH]4)cc3)cc2)[nH]1 [Compound S-93] | >100 fold
CC(C)[C@H](NC(=O)c1ccccc1C#N)c1ncc(-c2ccc(-c3ccc(-c4cnc([C@@H](NC(=O)c5ccccc5C#N)C(C)C)[nH]4)cc3)cc2)[nH]1 [Compound S-94] | >100 fold
Cc1nn(-c2ccccc2)nc1C(=O)N[C@H](c1ncc(-c2ccc(-c3ccc(-c4cnc([C@@H](NC(=O)c5nn(-c6ccccc6)nc5C)C(C)C)[nH]4)cc3)cc2)[nH]1)C(C)C [Compound S-95] | >10 fold
Cc1noc(C)c1C(=O)N[C@H](c1ncc(-c2ccc(-c3ccc(-c4cnc([C@@H](NC(=O)c5c(C)noc5C)C(C)C)[nH]4)cc3)cc2)[nH]1)C(C)C [Compound S-96] | >100 fold
Cc1c(F)cccc1C(=O)N[C@H](c1ncc(-c2ccc(-c3ccc(-c4cnc([C@@H](NC(=O)c5cccc(F)c5C)C(C)C)[nH]4)cc3)cc2)[nH]1)C(C)C [Compound S-97] | >100 fold
Cc1cc(C(=O)N[C@H](c2ncc(-c3ccc(-c4ccc(-c5cnc([C@@H](NC(=O)c6cc(C)oc6C)C(C)C)[nH]5)cc4)cc3)[nH]2)C(C)C)c(C)o1 [Compound S-98] | >100 fold
CCn1nc(C)cc1C(=O)N[C@H](c1ncc(-c2ccc(-c3ccc(-c4cnc([C@@H](NC(=O)c5cc(C)nn5CC)C(C)C)[nH]4)cc3)cc2)[nH]1)C(C)C [Compound S-99] | >10 fold
